This is an account of results in patent US9375530B2 (Allergan, Inc., priority 2007, dated 2016).

The conditions of series [1]: in vivo, cited from earlier work; for % Bioavailability: human.
A further series has as its system kidney water channels. Conditions: as illustrated in FIG. 1.
The conditions of series [2]: in vivo; cited from earlier work.
The conditions of series [3]: human, in vivo; cited from earlier work.

Read-outs that look alike come from different tables or passages of the source.

With `NC(=O)CC[C@@H]1NC(=O)[C@H](Cc2ccccc2)NC(=O)[C@H](Cc2ccc(O)cc2)NC(=O)CCSSC[C@@H](C(=O)N2CCC[C@H]2C(=O)N[C@H](CCCN=C(N)N)C(=O)NCC(N)=O)NC(=O)[C@H](CC(N)=O)NC1=O` [desmopressin, 1-desamino-8-D-arginine vasopressin], the figures for the “% Bioavailability” value in series [1] (po) and in series [1] (sc) were 0.1-0.15% and “Subcutaneous (±90) %”, respectively. Besides, the “ranges for peak blood levels” value in series [1] (po) is 10-20 fold. Also, in the series on kidney water channels, the “blood concentration sufficient to activate kidney water channels and induce an antidiuretic effect” value is “about 0.8 pg/ml”. Also, the undesirable side-effects result in series [2] is recorded as “high incidences of hyponatremia”. Also, the half life in series [3] was 1.5 to 2.0 h.
